Measured values reported in patent publication US20120157401A1, “METHODS FOR TREATING NEUROFIBROMATOSIS” (PTC Therapeutics, Inc., priority 2009, published 2012).
pEC50: −log10 of the molar value.

These compounds were tested on hypoxia-inducible endogenous VEGF expression (assay: Hypoxia-inducible endogenous VEGF expression ELISA in HeLa cells, dose-response EC50 (Table 3)). Settings: HeLa cells, hypoxic conditions (1% O2), 24-48 hours, VEGF in conditioned media; read-out: ELISA EC50.
Type: cell-based, human
Procedure: The ability of the Compounds to modulate hypoxia-inducible endogenous VEGF expression may be analyzed as follows. VEGF protein levels may be monitored by an ELISA assay (R&D Systems). Briefly, HeLa cells may be cultured for 24-48 hours under hypoxic conditions (1% O2, 5% CO2, balanced with nitrogen) in the presence or absence of a Compound. The conditioned media may then be assayed by ELISA, and the concentration of VEGF calculated from the standard ELISA curve of each assay.
A dose-response analysis may be performed using the ELISA assay and conditions described above. The conditions for the dose-response ELISA are analogous to those described above. A series of, e.g., seven different concentrations may be analyzed. In parallel, a dose-response cytotoxicity assay may be performed using Cell Titer Glo (Promega) under the same conditions as the ELISA to ensure that the inhibition of VEGF expression was not due to the cytotoxicity.

Row | SMILES | pEC50
1 | O=C(Oc1ccc(Cl)cc1)N1CCc2c([nH]c3ccc(Br)cc23)C1c1ccc(C(F)(F)F)cc1 (centres unmarked) [Compound 570] | > 8.10

Same assay, conditions: Homo sapiens, HeLa, read-out: ELISA EC50 μM

Row | SMILES | EC50
2 | COc1ccc(OC(=O)N2CCc3c([nH]c4ccc(Cl)cc34)C2c2ccc(OCC(=O)N3CCN(CCCN(C)C)CC3)cc2)cc1 (centres unmarked) [Compound 1029] | > 1 µM
3 | CN1CCCC(COc2ccc(C3c4[nH]c5ccc(Cl)cc5c4CCN3C(=O)Oc3ccccc3)cc2)C1 (centres unmarked) [Compound 952] | 0.008 to 0.04 µM
4 | COCCN1CCN(C(=O)COc2ccc(C3c4[nH]c5ccc(Cl)cc5c4CCN3C(=O)Oc3ccc(OC)cc3)cc2)CC1 (centres unmarked) [Compound 1025] | 0.04 to 0.2 µM
5 | Cc1ccc(OC(=O)N2CCc3c([nH]c4ccc(Cl)cc34)[C@@H]2c2ccc(OCCC(O)CN(CCO)CCO)cc2)cc1 (some centres unmarked) [Compound 1288] | 0.008 to 0.04 µM
6 | O=C(Oc1ccc(Cl)cc1)N1CCc2c([nH]c3ccc(Cl)cc23)C1c1ccc(OCCCN2CCSCC2)cc1 (centres unmarked) [Compound 933] | < 0.008 µM
7 | O=C(Oc1ccc(F)cc1)N1CCc2c([nH]c3ccc(Cl)cc23)C1c1ccc(OCCCN2CCSCC2)cc1 (centres unmarked) [Compound 991] | 0.04 to 0.2 µM
8 | COc1cc(C2c3[nH]c4ccc(Cl)cc4c3CCN2C(=O)Oc2ccc(Cl)cc2)ccc1OCCCCN1CCOCC1 (centres unmarked) [Compound 1094] | 0.008 to 0.04 µM
9 | O=C(Oc1ccc(Cl)cc1)N1CCc2c([nH]c3ccc(Cl)cc23)[C@@H]1c1ccc(OCCCNC2CCCC2)cc1 [Compound 1235] | 0.008 to 0.04 µM

Same assay, conditions: Homo sapiens; HeLa cells, hypoxic conditions (1% O2), 24-48 hours, VEGF in conditioned media; read-out: ELISA EC50

Row | SMILES | pEC50
10 | CCS(=O)(=O)Nc1ccc(C2c3[nH]c4ccc(Cl)cc4c3CCN2C(=O)Oc2ccc(Cl)cc2)cc1 (centres unmarked) [Compound 958] | 7.40 to 8.10
11 | O=C(Oc1ccc(Cl)cc1)N1CCc2c([nH]c3ccc(Cl)cc23)C1c1ccc(OCCCn2ccnc2)cc1 (centres unmarked) [Compound 917] | > 8.10
12 | O=C(Oc1ccc(Cl)cc1)N1CCc2c([nH]c3ccc(Cl)cc23)C1c1ccc(OCC2CO2)cc1 (centres unmarked) [Compound 460] | 7.40 to 8.10
13 | O=C(Oc1ccc(Cl)cc1)N1CCc2c([nH]c3ccc(Cl)cc23)[C@H]1c1ccc(OCCCCl)cc1 [Compound 1126] | 6.00 to 6.70
14 | O=C(Oc1ccc(Cl)cc1)N1CCc2c([nH]c3ccc(Cl)cc23)[C@@H]1c1ccc(OCC2(CO)COCOC2)cc1 [Compound 1263] | > 8.10
15 | COc1cc(C2c3[nH]c4ccc(Cl)cc4c3CCN2C(=O)Oc2ccccc2)ccc1OCCCn1cncn1 (centres unmarked) [Compound 1150] | 7.40 to 8.10
16 | O=C(Oc1ccc(F)cc1)N1CCc2c([nH]c3ccc(Cl)cc23)C1c1ccc(OCCCn2ccnc2)cc1 (centres unmarked) [Compound 889] | > 8.10
17 | CC(=O)NCC(CCOc1ccc([C@H]2c3[nH]c4ccc(Cl)cc4c3CCN2C(=O)Oc2ccc(Cl)cc2)cc1)OC(C)=O (some centres unmarked) [Compound 1277] | > 8.10
18 | O=C(Oc1ccc(Cl)cc1)N1CCc2c([nH]c3ccc(Cl)cc23)C1c1ccc(OCCCn2cncn2)cc1 (centres unmarked) [Compound 391] | > 8.10
19 | COc1cc(C2c3[nH]c4ccc(Cl)cc4c3CCN2C(=O)Oc2ccc(Cl)cc2)ccc1OCCCn1cncn1 (centres unmarked) [Compound 1087] | 7.40 to 8.10
20 | COC(=O)c1ccc(C2c3[nH]c4ccc(Cl)cc4c3CCN2C(=O)Oc2ccccc2Cl)cc1 (centres unmarked) [Compound 590] | 7.40 to 8.10
21 | COc1cc(C2c3[nH]c4ccc(Cl)cc4c3CCN2C(=O)Oc2ccccc2)ccc1OCCCn1nccn1 (centres unmarked) [Compound 1145] | 7.40 to 8.10
22 | O=C(Oc1ccc(Cl)cc1)N1CCc2c([nH]c3ccc(Cl)cc23)C1c1ccc(OCCCCn2cncn2)cc1 (centres unmarked) [Compound 706] | > 8.10
23 | O=C(Oc1ccccc1Cl)N1CCc2c([nH]c3ccc(Cl)cc23)C1c1ccc(OCC2OCCO2)cc1 (centres unmarked) [Compound 1052] | 7.40 to 8.10
24 | Cc1ccc(OC(=O)N2CCc3c([nH]c4ccc(Cl)cc34)C2c2ccc(OCCCCl)cc2)cc1 (centres unmarked) [Compound 915] | > 8.10
25 | O=C(Oc1ccccc1)N1CCc2c([nH]c3ccc(Cl)cc23)C1c1ccc(OCC(O)CO)cc1 (centres unmarked) [Compound 626] | 7.40 to 8.10
26 | O=C(Oc1ccc(Cl)cc1)N1CCc2c([nH]c3ccc(Cl)cc23)[C@@H]1c1ccc(OC(CO)CO)cc1 [Compound 1259] | 7.40 to 8.10
27 | COc1ccc(C2c3[nH]c4ccc(Cl)cc4c3CCN2C(=O)O[C@H]2C[C@@H](C)CC[C@@H]2C(C)C)cc1 (some centres unmarked) [Compound 192] | 6.00 to 6.70
28 | O=C(Oc1ccc(Cl)cc1)N1CCc2c([nH]c3ccc(Cl)cc23)C1c1ccc(NC2CCOCC2)cc1 (centres unmarked) [Compound 440] | > 8.10

Row | SMILES | pEC50
29 | O=C(Oc1ccc(F)cc1)N1CCc2c([nH]c3ccc(Cl)cc23)C1c1ccc(O)cc1 (centres unmarked) [Compound 575] | 6.00 to 6.70
30 | COc1ccc(C2c3[nH]c4ccc(Cl)cc4c3CCN2C(=O)Oc2ccc(F)cc2)cc1 (centres unmarked) [Compound 401] | > 8.10
31 | O=C(Oc1ccc(F)cc1)N1CCc2c([nH]c3ccc(Br)cc23)C1c1ccc(C(F)(F)F)cc1 (centres unmarked) [Compound 397] | > 8.10
32 | O=C(Oc1ccc(F)cc1)N1CCc2c([nH]c3ccc(Cl)cc23)C1c1ccc(OCCCn2ccnn2)cc1 (centres unmarked) [Compound 995] | > 8.10
33 | COc1ccc(OC(=O)N2CCc3c([nH]c4ccc(Cl)cc34)C2c2ccc(OCCCn3nccn3)cc2)cc1 (centres unmarked) [Compound 1134] | > 8.10
34 | O=C(Oc1ccc(F)cc1)N1CCc2c([nH]c3ccc(Cl)cc23)C1c1ccc(OCCCCCCn2ccnc2)cc1 (centres unmarked) [Compound 780] | > 8.10
35 | O=C(Oc1ccc(F)cc1)N1CCc2c([nH]c3ccc(Cl)cc23)C1c1cccc(OCCCn2ccnc2)c1 (centres unmarked) [Compound 1123] | 6.70 to 7.40
36 | O=C(O)c1ccc(C2c3[nH]c4ccc(Cl)cc4c3CCN2C(=O)Oc2ccc(F)cc2)cc1 (centres unmarked) [Compound 581] | < 6.00
37 | Cc1ccc(OC(=O)N2CCc3c([nH]c4ccc(Cl)cc34)[C@@H]2c2ccc(OCC(C)(CO)CO)cc2)cc1 [Compound 1297] | 7.40 to 8.10
38 | COCCOCCOc1ccc(C2c3[nH]c4ccc(Cl)cc4c3CCN2C(=O)Oc2ccc(OC)cc2)cc1 (centres unmarked) [Compound 678] | 6.70 to 7.40
39 | O=C(Oc1ccc(Cl)cc1)N1CCc2c([nH]c3ccc(Cl)cc23)[C@@H]1c1ccc(OC[C@@H](O)CO)cc1 [Compound 1224] | > 8.10
40 | COC(=O)c1ccc(C2c3[nH]c4ccc(Cl)cc4c3CCN2C(=O)Oc2ccc(Cl)cc2)cc1 (centres unmarked) [Compound 580] | > 8.10
41 | O=C(Oc1ccc(Cl)cc1)N1CCc2c([nH]c3ccc(Cl)cc23)C1c1ccc(OCC[C@H](O)CO)cc1 (some centres unmarked) [Compound 1172] | > 8.10
42 | COc1ccc(OC(=O)N2CCc3c([nH]c4ccc(Cl)cc34)C2c2ccc(OCCCO)cc2)cc1 (centres unmarked) [Compound 1058] | > 8.10
43 | COc1ccc(C2c3[nH]c4ccc(OCc5ccccc5)cc4c3CCN2C(=O)Oc2ccc(Cl)cc2)cc1 (centres unmarked) [Compound 616] | 6.00 to 6.70
44 | O=C(Oc1ccc(Cl)cc1)N1CCc2c([nH]c3ccc(Cl)cc23)[C@@H]1c1ccc(OCCCO)cc1 [Compound 1250] | > 8.10
45 | O=C(Oc1ccc(Cl)cc1)N1CCc2c([nH]c3ccc(Br)cc23)C1c1ccc(C(F)(F)F)cc1 (centres unmarked) [Compound 405] | > 8.10
46 | COCCOCCOc1ccc(C2c3[nH]c4ccc(Cl)cc4c3CCN2C(=O)Oc2ccccc2Cl)cc1 (centres unmarked) [Compound 674] | 7.40 to 8.10
47 | CS(=O)(=O)c1ccc(C2c3[nH]c4ccc(Cl)cc4c3CCN2C(=O)Oc2ccc(Cl)cc2)cc1 (centres unmarked) [Compound 360] | 7.40 to 8.10

Same assay, conditions: Homo sapiens; HeLa cells, hypoxic conditions (1% O2), VEGF ELISA of conditioned media; read-out: ELISA EC50

Row | SMILES | pEC50
48 | C[Si](C)(C)CCS(=O)(=O)N1CCC(Oc2ccc([C@H]3c4[nH]c5ccc(Cl)cc5c4CCN3C(=O)Oc3ccc(Cl)cc3)cc2)CC1 [Compound 1652] | > 8.10
49 | COCCOC(=O)NCC(O)COc1ccc(C2c3[nH]c4ccc(Cl)cc4c3CCN2C(=O)Oc2ccc(Cl)cc2)cc1 (centres unmarked) [Compound 1564] | > 8.10
50 | O=C(Oc1ccc(F)cc1)N1CCc2c([nH]c3ccc(Cl)cc23)[C@@H]1c1ccc(OC2CCOCC2)cc1 [Compound 1604] | > 8.10
51 | O=C(Oc1ccc(Cl)cc1)N1CCc2c([nH]c3ccc(Cl)cc23)[C@@H]1c1ccc(OC2CCOCC2)cc1 [Compound 1605] | > 8.10
52 | CCS(=O)(=O)NCC(O)CCOc1ccc([C@H]2c3[nH]c4ccc(Cl)cc4c3CCN2C(=O)Oc2ccc(Cl)cc2)cc1 (some centres unmarked) [Compound 1638] | > 8.10
53 | Cc1cc(N)nn1CCOc1ccc(C2c3[nH]c4ccc(Cl)cc4c3CCN2C(=O)Oc2ccc(Cl)cc2)cc1 (centres unmarked) [Compound 1418] | 7.40 to 8.10
54 | O=C(Oc1ccc(Cl)cc1)N1CCc2c([nH]c3ccc(Cl)cc23)[C@@H]1c1ccc(Oc2cnccn2)cc1 [Compound 1571] | > 8.10
55 | O=C(Oc1ccc(Cl)cc1)N1CCc2c([nH]c3ccc(Cl)cc23)[C@H]1c1ccc(OCC[C@H](O)CO)cc1 [Compound 1330] | < 6.00
56 | C[Si](C)(C)CCS(=O)(=O)N1CCC(Oc2ccc(C3c4[nH]c5ccc(Cl)cc5c4CCN3C(=O)Oc3ccc(Cl)cc3)cc2)CC1 (centres unmarked) [Compound 1581] | > 8.10
57 | COc1ccc(OC(=O)N2CCc3c([nH]c4ccc(Cl)cc34)C2c2ccc(OCC#N)cc2)cc1 (centres unmarked) [Compound 1549] | 7.40 to 8.10
58 | N#Cc1cn(CCOc2ccc(C3c4[nH]c5ccc(Cl)cc5c4CCN3C(=O)Oc3ccc(Cl)cc3)cc2)nc1N (centres unmarked) [Compound 1421] | > 8.10
59 | N#CCOc1ccc(C2c3[nH]c4ccc(Cl)cc4c3CCN2C(=O)Oc2ccccc2Cl)cc1 (centres unmarked) [Compound 1546] | 6.70 to 7.40
60 | CCCOC(=O)NCC(O)CCOc1ccc([C@H]2c3[nH]c4ccc(Cl)cc4c3CCN2C(=O)Oc2ccc(Cl)cc2)cc1 (some centres unmarked) [Compound 1666] | > 8.10
61 | NC(=O)c1cn(CCOc2ccc(C3c4[nH]c5ccc(Cl)cc5c4CCN3C(=O)Oc3ccc(F)cc3)cc2)nc1N (centres unmarked) [Compound 1416] | 6.70 to 7.40
62 | [H]/N=c1\sc(C)cn1CCOc1ccc([C@H]2c3[nH]c4ccc(Cl)cc4c3CCN2C(=O)Oc2ccc(Cl)cc2)cc1 [Compound 1568] | 7.40 to 8.10
